Values of other authors, collected in patent US20220000966A1, “COMPOSITION AND METHOD FOR TREATING THE LUNGS” (priority 2018, published 2022).
Where two headings read alike, the source gives them in different places.

Assays:
human TRPM8 (hTRPM8) = human TRPM8 (hTRPM8) (Homo sapiens, UniProt Q7Z2W7)
[1] = system: patients with reversible obstructive ventilatory disorders
TRPA1 [2] = target: T1, TRPA1 (Homo sapiens, UniProt O75762)
lymphocytes = conditions: 1.5 μg/mL
human subjects = conditions: octanol on the neck of human subjects followed by 1,8-cineole
[3] = system: patients with steroid-dependent bronchial asthma
TRPA1 [4] = target: T1, TRPA1; remark: listed apart in the source
[5] = system: primary human bronchial epithelial cells; conditions: cigarette smoke extract, pretreatment
[6] = system: airway inflammation in asthma; conditions: in vivo
leukemia K562 cells = conditions: in vitro and ex vivo
[7] = orally 600 mg/day, COPD patients
[8] = system: particulate air pollution-induced inflammation; conditions: in vivo
[9] = system: human lung epithelial cells (A-549), fibroblasts (HFL1), and lymphoma cells (U-937)
[10] = oral administration, healthy subjects
patients = conditions: inhaled
human MonoMac6 cells = conditions: cells pretreated
mice = conditions: injection
Guinea pigs = conditions: pretreatment
rats = conditions: 50 mg/kg orally each day, smoke 1 hr/day for 56 days
[11] = patients with bronchial asthma, day 4, 1,8-cineole capsules 200 mg 3 times/day
[12] = 200 mg orally 3 times per day for 12 weeks

T1 sequence (O75762 whole entry): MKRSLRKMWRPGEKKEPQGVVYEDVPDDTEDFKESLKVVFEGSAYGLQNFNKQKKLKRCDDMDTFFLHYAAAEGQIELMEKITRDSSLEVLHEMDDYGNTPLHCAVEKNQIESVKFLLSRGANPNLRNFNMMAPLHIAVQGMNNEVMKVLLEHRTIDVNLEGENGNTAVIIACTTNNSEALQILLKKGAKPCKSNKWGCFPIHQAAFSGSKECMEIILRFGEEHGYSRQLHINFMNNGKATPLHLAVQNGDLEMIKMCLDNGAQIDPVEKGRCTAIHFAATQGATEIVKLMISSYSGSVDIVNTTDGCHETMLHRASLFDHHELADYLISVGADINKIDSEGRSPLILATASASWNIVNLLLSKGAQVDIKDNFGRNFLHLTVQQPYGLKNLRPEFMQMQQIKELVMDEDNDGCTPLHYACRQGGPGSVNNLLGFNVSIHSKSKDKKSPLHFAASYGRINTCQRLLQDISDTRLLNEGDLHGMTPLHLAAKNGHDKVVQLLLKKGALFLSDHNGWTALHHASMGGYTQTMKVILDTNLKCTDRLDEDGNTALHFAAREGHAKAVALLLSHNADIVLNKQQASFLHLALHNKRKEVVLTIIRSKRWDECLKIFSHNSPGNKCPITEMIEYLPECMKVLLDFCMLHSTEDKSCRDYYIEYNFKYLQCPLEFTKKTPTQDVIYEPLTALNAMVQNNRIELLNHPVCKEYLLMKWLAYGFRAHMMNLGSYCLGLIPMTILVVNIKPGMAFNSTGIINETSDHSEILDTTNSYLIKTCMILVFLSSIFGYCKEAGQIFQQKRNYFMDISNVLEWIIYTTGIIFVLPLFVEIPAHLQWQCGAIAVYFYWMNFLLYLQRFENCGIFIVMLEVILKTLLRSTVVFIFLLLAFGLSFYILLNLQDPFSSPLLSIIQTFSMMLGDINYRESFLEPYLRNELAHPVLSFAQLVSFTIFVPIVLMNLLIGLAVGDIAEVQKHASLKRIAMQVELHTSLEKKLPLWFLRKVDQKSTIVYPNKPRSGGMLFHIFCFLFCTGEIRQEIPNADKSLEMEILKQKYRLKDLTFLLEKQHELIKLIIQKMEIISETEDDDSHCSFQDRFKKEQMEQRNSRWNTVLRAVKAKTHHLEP
human TRPM8 (hTRPM8), sequence (Q7Z2W7 whole entry): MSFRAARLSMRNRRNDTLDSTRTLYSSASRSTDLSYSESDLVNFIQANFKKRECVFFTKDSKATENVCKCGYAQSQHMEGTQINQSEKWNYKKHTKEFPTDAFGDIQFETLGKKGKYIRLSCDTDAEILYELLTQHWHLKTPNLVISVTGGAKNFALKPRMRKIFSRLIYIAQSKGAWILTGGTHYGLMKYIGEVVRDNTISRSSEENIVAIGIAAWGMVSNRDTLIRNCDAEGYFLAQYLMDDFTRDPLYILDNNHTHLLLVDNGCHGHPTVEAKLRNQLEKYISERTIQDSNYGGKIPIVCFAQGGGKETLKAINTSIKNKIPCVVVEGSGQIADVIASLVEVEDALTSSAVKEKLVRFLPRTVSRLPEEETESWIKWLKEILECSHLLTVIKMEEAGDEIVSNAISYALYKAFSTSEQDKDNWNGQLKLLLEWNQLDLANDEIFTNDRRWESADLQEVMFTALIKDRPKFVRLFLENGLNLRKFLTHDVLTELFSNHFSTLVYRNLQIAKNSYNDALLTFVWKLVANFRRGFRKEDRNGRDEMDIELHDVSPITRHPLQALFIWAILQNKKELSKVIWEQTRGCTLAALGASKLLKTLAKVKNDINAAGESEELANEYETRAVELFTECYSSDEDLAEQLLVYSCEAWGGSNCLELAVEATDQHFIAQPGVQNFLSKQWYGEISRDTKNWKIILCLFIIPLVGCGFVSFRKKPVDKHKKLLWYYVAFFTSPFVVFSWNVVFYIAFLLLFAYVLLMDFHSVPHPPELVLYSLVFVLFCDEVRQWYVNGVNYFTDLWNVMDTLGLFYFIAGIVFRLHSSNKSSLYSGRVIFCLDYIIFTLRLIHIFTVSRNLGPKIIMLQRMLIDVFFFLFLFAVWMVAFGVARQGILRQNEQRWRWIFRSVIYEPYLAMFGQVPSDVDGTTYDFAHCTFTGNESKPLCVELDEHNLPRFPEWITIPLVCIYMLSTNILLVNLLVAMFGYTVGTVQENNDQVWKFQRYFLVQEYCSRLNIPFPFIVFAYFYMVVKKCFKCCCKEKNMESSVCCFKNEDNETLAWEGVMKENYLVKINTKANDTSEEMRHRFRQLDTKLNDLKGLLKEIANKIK

## CC12CCC(CC1)C(C)(C)O2 [1,8-cineole]
monocytes
  inhibition of production of TNF-α, IL-1β, LTB4 and TXB2: dose-dependent and highly significant inhibition
Human TRPM8 (hTRPM8)
  TRPM8 activation: activates
[1]; treatment duration of eight weeks
  change of airway resistance: −21%
[1]; treatment duration of one week
  change of airway resistance: −23%
TRPA1 [2]
  action on hTRPA1: antagonist
Blood monocytes; healthy volunteers, day 4
  change of LTB4 production from monocytes ex vivo: −57.9%
  change of PGE2 production from monocytes ex vivo: −42.7%
Blood monocytes; [11]
  change of LTB4 production from monocytes ex vivo: −40.3%
  change of PGE2 production from monocytes ex vivo: −31.3%
lymphocytes
  inhibition of IL-1β production in lymphocytes: 84%
Human subjects
  irritation of octanol: significantly reduced
[3]; [12]
  reduction in daily prednisolone dosage tolerated: 36%
  reduction in daily prednisolone dosage, mean: 3.75 mg
[3]; 1,8-cineole group
  patients who achieved a reduction of oral steroids: Twelve of 16

## C=C1CC/C=C(\C)CC[C@@H]2[C@@H]1CC2(C)C [BCP, β-caryophyllene]
TRPA1 [4]
  action on TRPA1: agonist

## CC(C)c1ccc(NC(=O)Cn2cnc3c2c(=O)n(C)c(=O)n3C)cc1 [HC-030031]
[5]
  Ca^2+ influx: decrease in Ca^2+ influx was similar

## CCNC(=O)CC[C@H](N)C(=O)O [L-theanine]
[6]
  inflammatory cells in bronchoalveolar lavage fluid (BALF): dramatically attenuated
  production of IgE, MCP-1, IL-4, IL-5, IL-13, TNF-α and INF-γ in BALF: significantly decreased
Leukemia K562 cells
  growth of leukemia K562 cells: significantly suppressed
Human lung cancer A549
  migration and invasion of A549 cells: significantly inhibited
Human lung cancer A549; in vitro and ex vivo
  growth of human lung cancer A549 cells: significantly suppressed

## CC(=O)N[C@@H](CS)C(=O)O [N-acetyl cysteine]
[7]
  sputum eosinophil cationic protein concentrations and adhesion of polymorphonuclear leukocytes: reduced
[8]
  particulate air pollution-induced inflammation: effectively prevented
[5]
  Ca^2+ influx: prevented

## COc1ccc2cc3[n+](cc2c1OC)CCc1cc2c(cc1-3)OCO2 [berberine]
[9]
  inhibition of inflammatory agents-induced cytokine production: dose-dependent and cell type-independent

## COc1cc(O)cc(O)c1C(=O)/C=C/c1ccccc1 [cardamonin]
cardiomyocyte
  cardiomyocyte constriction: nor did it impair

## N[C@@H](CCC(=O)N[C@@H](CS)C(=O)NCC(=O)O)C(=O)O [glutathione, γ-L-glutamyl-L-cysteinyl-glycine]
[10]
  increase of plasma glutathione levels: ineffective
Aerosol nebulizer
  period for which epithelial lung fluid glutathione remained elevated: 2 h
Aerosol nebulizer, 4 mL of 150 mg/mL over 25 minutes
  glutathione epithelial lung fluid concentration: about 337 μM
Intravenously administered 600 mg
  glutathione concentration increase in epithelial lung fluid: no measurable glutathione concentration increases
patients
  FEV1 change from baseline: −19%
  induced breathlessness: three
  induced cough: four
  total pulmonary resistance change from baseline: +61%
Human MonoMac6 cells
  cigarette smoke-induced reduction in HDAC levels: reversed
Human MonoMac6 cells; cigarette smoke extract
  IL-8 release: significantly inhibited

## CC1CCC(C(C)C)C(O)C1 (centres unmarked) [menthol, reference compound]
Human TRPM8 (hTRPM8)
  TRPM8 activation: activation
TRPA1 [2]
  TRPA1 activation: activated

## CC1=CC(=O)C(C(C)C)=CC1=O [thymoquinone]
mice
  chronic inflammatory changes: reduction
Guinea pigs
  TNF-α level: significantly reduced
  bronchoalveolar lavage fluid Leukotriene B4 (LTB4) levels: did not significantly change
  malondialdehyde level: significantly reduced
  neutrophil elastase (NE) level: significantly reduced

## epigallocatechin-3-gallate
rats
  cigarette smoke-induced oxidative stress, neutrophilic inflammation, airway mucus production and collagen deposition: ameliorated
Guinea pigs
  TNF-α level: significantly reduced
  bronchoalveolar lavage fluid Leukotriene B4 (LTB4) levels: significantly reduced
  glutathione peroxidase activity: increase
  myeloperoxidase in lung tissue homogenate: significantly reduced
  neutrophil elastase (NE) level: significantly reduced
  superoxide dismutase activity: not significantly affected
